Patent US20070116687A1, “Method of modulating cellular transmigration and agents for use therein” (Medvet Science PTY, Ltd., priority 2003, published 2007)
Entries after “also recorded” stand apart in the source; their conditions may differ.

Assays:
[1] = system: neutrophil transmigration across a confluent monolayer of cultured human umbilical vein endothelial cells (HUVEC); experiment: Neutrophil transmigration assay across HUVEC monolayer on Transwells; format: cell-based
Description: FIG. 1 is a graphical representation of inhibitors that act on MEK inhibit neutrophil transmigration across endothelium. A, Confluent HUVEC monolayers plated (5×10^4 cells/well) on Transwells were either unstimulated or activated with TNFα (4 ng/ml) for 4 hours. Thirty min prior to the assay some monolayers were treated with PD98059 (45 μM) or DMSO control. Neutrophils (5×10^5 cells/well) were added with either PD98059 or DMSO. Transmigration was assayed across TNFα-activated endothelium (TNF) and unstimulated endothelium with (fMLP) or without (Nil) a gradient of 10 nM fMLP. The assays were carried out in triplicate and 1 representative of 5 experiments shown. An ANOVA was performed looking for an effect of PD98059 compared to DMSO on transmigration: in this experiment p<0.0001 and in the overall series p<0.0001. B, Endothelial monolayers were treated as in A, but the concentration of PD98059 was varied as indicated. The data are presented as percentage of transmigration relative to that across unstimulated endothelium. One representative experiment of 7, each performed in triplicate, is shown. […] C, Endothelial cells on Transwells were left unstimulated or activated with TNFα as in A. Using the standard protocol, U0126 or its solvent, DMSO, were added to the monolayers 30 min prior to the experiment, and then added with the neutrophils. The results from one of two experiments, each performed in triplicate, is shown.
This was performed as previously described using Transwells (6.5 mm diameter, […] pore size, Costar, Cambridge, Mass.) on 24 well culture trays (Smith et al., 1991, supra). Briefly, 5×10^4 HUVEC (between passages 2 and 5) were seeded in the upper chamber of each Transwell pre-coated with fibronectin (50 μg/mL for 30 minutes) and the cells were grown at 37° C. in 5% CO2 supplemented air to form a confluent monolayer. Neutrophils were added at 5×10^5 cells/well to the top chamber and where indicated chemoattractant was added to the lower chamber. The neutrophils were incubated at 37° C. for 1 h after which the number that had transmigrated into the lower chamber were collected and counted. Transmigration is expressed as a percentage of neutrophils added.
Neutrophils were counted using one of two methods. Neutrophils retrieved from the lower compartment were either counted directly using a Coulter counter (Model ZF, Coulter, Herts, UK) or using an indirect colourimetric assay based on the conversion of a tetrazolium salt (MTT) to a formazan. Briefly, MTT (0.2 mg/ml, Sigma, St. Louis, […].) was added to the lower chamber and incubated for 4 hours at 37° C. The neutrophils were pelleted by centrifugation, the pellets resuspended in 200 μl acid isopropanol for an hour and the absorbance at 550 nm determined. A standard curve was constructed by serial dilution of the neutrophil preparation and the percentage of neutrophils transmigrating was calculated from this. The two methods used produced results of good fit (least squares fit regression analysis, >95% confidence) (data not shown).
To identify signalling pathways in the endothelium that are essential for neutrophil transmigration, a screen for their effects on transmigration was carried out using pharmacological inhibitors of various signalling pathways (data not shown). The studies were performed using an in vitro model of neutrophil transmigration across a confluent monolayer of cultured human umbilical vein endothelial cells (HUVEC). Transmigration induced by an exogeneously added chemoattractant gradient and across TNFα-activated endothelium were both examined. […] In general, transmigration across TNFα-activated endothelium was inhibited to a greater extent than transmigration across a gradient of fMLP, with 70-80% inhibition of transmigration across TNFα-activated endothelium compared to only 40-50% inhibition of transmigration across an fMLP gradient. The inhibitory effects of PD98059 were also confirmed using a second MEK inhibitor, U0126 (FIG. 1C).

neutrophil chemotaxis = experiment: Neutrophil chemotaxis assay (Transwells, no HUVEC monolayer); format: cell-based, human; conditions: 30 μM PD98059 vs DMSO
Description: (§1) A, Chemotaxis assay using neutrophils pretreated for 20 min at room temperature with 30 μM PD98059 or DMSO. Chemotaxis was stimulated by the presence of 10 nM fMLP, or 1 nM IL-8 in the lower chamber; medium alone served as a control (nil). The data represent one of three experiments, each performed in triplicate. ANOVA looking for an effect of PD98059 compared to DMSO on chemotaxis gave p=0.359. B, Confluent HUVEC monolayers were stimulated with TNFα for 4 h, with PD98059 or DMSO added in the final 30 min. The extent of neutrophil adhesion to the endothelium was determined using a standard adhesion assay. The data is presented as the percentage of neutrophil remaining adherent relative to that added (% adhesion). The results represent one of three experiments, each performed in triplicate. (p=0.238, t-test comparing DMSO+TNF with PD+TNF).
Chemotaxis assays were performed using Transwells essentially as in the transmigration assay except that the HUVEC monolayer was omitted. In addition, instead of pre-coating the upper chamber with fibronectin, the lower chamber was pre-coated with gelatin to prevent adhesion of neutrophils. […] Neutrophils that had migrated through the filters after 1 hour incubation at 37° C. were counted. Counts are expressed as a percentage of the total number of cells added. […]

[2] = system: neutrophil adhesion to TNFα-activated endothelium; experiment: Neutrophil adhesion assay on HUVEC monolayer; format: cell-based, human
Description: as §1
Adhesion assays were performed as previously described (Gamble, J. R., Y. Khew-Goodall, and M. A. Vadas. 1993. J Immunol. 150:4494-4503) with the exception that neutrophils were used. […] After washing the cells were stained with Rose Bengal and total numbers of adherent neutrophils determined by densitometry. The number of adherent neutrophils was computed from a standard curve and expressed as a percentage of the neutrophils added. […]

endothelial ERK (HUVEC) [3] = experiment: ERK activation assay (Western blot with phospho-ERK Ab); format: cell-based, human; conditions: for endothelial ERK activation by direct treatment of endothelial monolayer: HUVEC treated 15 min, no neutrophils, anti-phospho-ERK Western blot
Description: A, Endothelial cells treated with 0.4 ng/ml TNFα (TNF), 30 ng/ml interleukin-4 (IL-4), 20 ng/ml oncostatin-M (OsM), 100 ng/ml PMA, or medium alone (Nil) for 15 minutes were assayed for Erk activation. Western blots shown were carried out using an anti-phospho-Erk Ab to detect activated Erk. Equal amounts of protein were loaded onto each lane. B, HUVEC were activated with TNFα for 4 hours or left unstimulated. After washing, either medium containing IL-8 (−) or neutrophils pre-treated with 1 nM IL-8 (+) were added at a 10:1 ratio of neutrophils to HUVEC and Erk activation assayed after 15 min at 37° C. Western blots shown were carried out using antibodies to phospho-Erk (upper panel) or reprobed with an anti-Erk polyclonal antibody after membranes were stripped (lower panel).
A, Neutrophils, untreated or incubated with a β2 integrin functional blocking antibody, TS1/18 (50 μg/ml), for 20 min at room temperature were added to HUVEC in the presence of 1 nM fMLP for 15 min. HUVEC monolayers were then analysed for Erk activation by Western blotting with an anti-phospho-Erk Ab. B, Neutrophils, untreated or treated with the TS1/18 Ab as in A, were added to 96-well tissue culture dishes in the presence or absence of 1 nM fMLP and neutrophil adhesion was determined. The data is presented as the percentage of neutrophil remaining adherent relative to that added (% adhesion). By ANOVA comparing +/−TS1/18, p=0.0002, n=3.
Resting HUVEC monolayers incubated with medium (nil), neutrophils (N) or neutrophil conditioned medium (CM), were analysed for Erk activation by Western blotting with an anti-phospho-Erk Ab. A, Neutrophils were stimulated for 15 minutes with 1 nM fMLP and then divided into two aliquots. One aliquot was centrifuged and the top 2/3 taken, carefully avoiding the cellular pellet, and added as conditioned medium (CM). The other aliquot was resuspended and 2/3 taken and added as the equivalent amount of neutrophil preparation (N). B. Conditioned media from neutrophils treated with 1 or 100 nM fMLP (prepared as in A) were added to HUVEC either undiluted (neat) or after diluting 1 in 3 (1/3) in medium. […]
HUVEC (10^6 cells/well) were seeded in 6-well tissue culture dishes. […] Protein concentration was determined using the Bradford reagent (BioRad) and equal amounts of protein loaded onto a 7.5% SDS polyacrylamide gel. […] Total ERK present was determined by stripping the filter and re-blotting with an antibody against ERK 1/2.
We therefore investigated whether ERK activation in the endothelium may be occurring under the conditions of the transmigration assay and which parameter(s) present in the assay system were responsible for its activation. Initially, the role of the inducers, TNFα and fMLP, used in the transmigration assay were assessed. […]

endothelial ERK (HUVEC) [4] = conditions: Xia et al. 1998; cited from earlier work

In the case of COc1cccc(-c2cc(=O)c3ccccc3o2)c1N [PD98059], the “effect on neutrophil transmigration across TNFα-activated endothelium” value ([1]; TNFα-activated HUVEC) is reported as “inhibit in a dose-dependent manner”, the “inhibition of transmigration across TNFα-activated endothelium” value ([1]; TNFα-activated HUVEC, inhibitor added 30 min before and with neutrophils, 1 h) is reported as 70-80% and the “effect on neutrophil transmigration induced by a chemoattractant (fMLP) gradient” value ([1]; unstimulated HUVEC) is reported as “inhibit in a dose-dependent manner”. The “inhibition of transmigration across an fMLP gradient” value ([1]; unstimulated HUVEC, fMLP gradient (10 nM), 1 h) was 40-50%, the IL-8-stimulated neutrophil chemotaxis (neutrophil chemotaxis; 1 nM IL-8 in lower chamber) was “not significantly affected” and the fMLP-stimulated neutrophil chemotaxis (neutrophil chemotaxis; 10 nM fMLP in lower chamber) was “not significantly affected”. For the same molecule, the “neutrophil adhesion to TNFα-activated endothelium in presence of inhibitor” value ([2]; HUVEC stimulated with TNFα 4 h, inhibitor in final 30 min) was “not significantly affected”.

For CSCC[C@H](NC=O)C(=O)N[C@@H](CC(C)C)C(=O)N[C@@H](Cc1ccccc1)C(=O)O [fMLP, N-formyl-methionyl-leucinyl-phenylalanine], the “endothelial ERK activation by direct treatment of endothelial monolayer” value (“endothelial ERK activation” for short) (endothelial ERK (HUVEC) [3]) was “did not activate endothelial ERK; also recorded: had no effect on endothelial ERK activation” and the “induction of the ERK-activating factor in neutrophils” value (endothelial ERK (HUVEC) [3]; conditioned media of stimulated neutrophils added to HUVEC, phospho-ERK read-out) was “induced the ERK-activating factor”.

In the case of TNFα, the “neutrophil adhesion to endothelium after treatment of the endothelium” value ([2]; TNFα treatment of HUVEC, 4 h) is listed as “stimulated neutrophil adhesion”, the “endothelial ERK activation” value (endothelial ERK (HUVEC) [3]) is listed as “marginally activated ERK” and the “fold activation of ERK (earlier observations)” value (endothelial ERK (HUVEC) [4]) is listed as 1.5-2.0 fold.

For N#CC(=C(/N)Sc1ccccc1N)/C(C#N)=C(\N)Sc1ccccc1N [U0126], the “effect on neutrophil transmigration across TNFα-activated endothelium” value ([1]; TNFα-activated HUVEC) was “inhibited transmigration across TNFα-activated endothelium to a similar extent as PD 98059” and the “effect on neutrophil transmigration induced by a chemoattractant (fMLP) gradient” value ([1]; unstimulated HUVEC) was “showed greater potency against fMLP-driven transmigration”.

B1: IL-4: interleukin-4 (protein, UniProt P05112 25-153, looked up)
Interleukin-4: HKCDITLQEIIKTLNSLTEQKTLCTELTVTDIFAASKNTTEKETFCRAATVLRQFYSHHEKDTRCLGATAQQFHRHKQLIRFLKRLDRNLWGLAGLNSCPVKEANQSTLENFLERLKTIMREKYSKCSS
In the case of B1, the “endothelial ERK activation” value (endothelial ERK (HUVEC) [3]) is reported as “marginally activated ERK”.
